Source: ChEMBL document CHEMBL3407491, “Synthesis, characterization and in vitro photodynamic antimicrobial activity of basic amino acid-porphyrin conjugates” (Eur J Med Chem, 2015)
Converted amounts (≈) assume the structure as drawn. The source made the active and inactive calls. No cut-off for these calls is given here.

Assays:
Staphylococcus aureus [1] = experiment: Antibacterial activity against methicillin-resistant Staphylococcus aureus incubated in dark for 30 mins and grown for 24 hrs followed by further incubation on LB agar plates for another 24 hrs; format: functional
Escherichia coli [2] = experiment: Antibacterial activity against Escherichia coli ATCC 25922 incubated in dark for 30 mins measured after 24 hrs; format: functional
Staphylococcus aureus [3] = experiment: Bactericidal activity against methicillin-resistant Staphylococcus aureus incubated in dark for 30 mins followed by exposure to light fluences at 650 nm and 6 J/cm2 and then incubated overnight followed by further incubation on LB agar plates for another 24 hrs; format: functional; settings: light or radiation study
Pseudomonas aeruginosa [4] = experiment: Antibacterial activity against Pseudomonas aeruginosa ATCC 27853 incubated in dark for 30 mins followed by exposure to light fluences at 650 nm and 6 J/cm2 and then incubated overnight measured after 24 hrs; format: functional; settings: ATCC 27853, light or radiation study
Escherichia coli [5] = experiment: Antibacterial activity against Escherichia coli ATCC 25922 incubated in dark for 30 mins followed by exposure to light fluences at 650 nm and 6 J/cm2 and then incubated overnight measured after 24 hrs; format: functional; settings: ATCC 25922, light or radiation study
Staphylococcus aureus [6] = experiment: Antibacterial activity against methicillin-resistant Staphylococcus aureus incubated in dark for 30 mins measured after 24 hrs; format: functional
Staphylococcus aureus [7] = experiment: Antibacterial activity against methicillin-resistant Staphylococcus aureus incubated in dark for 30 mins followed by exposure to light fluences at 650 nm and 6 J/cm2 and then incubated overnight measured after 24 hrs; format: functional; settings: light or radiation study
Pseudomonas aeruginosa [8] = experiment: Bactericidal activity against Pseudomonas aeruginosa ATCC 27853 incubated in dark for 30 mins followed by exposure to light fluences at 650 nm and 6 J/cm2 and then incubated overnight followed by further incubation on LB agar plates for another 24 hrs; format: functional; settings: ATCC 27853, light or radiation study
[9] = Singlet oxygen generation of the compound exposed to 4.2 mW/cm2 light energy density assessed as singlet oxygen quantum yield measured at 410 nm in 10 seconds intervals of irradiation at 0.2 uM by DPBF scavenger based assay
Pseudomonas aeruginosa [10] = experiment: Antibacterial activity against Pseudomonas aeruginosa ATCC 27853 incubated in dark for 30 mins measured after 24 hrs; format: functional
[11] = Octanol water partition coefficient, log P of the compound by reverse-phase thin-layer chromatography; format: physicochemical
Escherichia coli [12] = experiment: Antibacterial activity against Escherichia coli ATCC 25922 incubated in dark for 30 mins and grown for 24 hrs followed by further incubation on LB agar plates for another 24 hrs; format: functional
Pseudomonas aeruginosa [13] = experiment: Antibacterial activity against Pseudomonas aeruginosa ATCC 27853 incubated in dark for 30 mins and grown for 24 hrs followed by further incubation on LB agar plates for another 24 hrs; format: functional
Escherichia coli [14] = experiment: Bactericidal activity against Escherichia coli ATCC 25922 incubated in dark for 30 mins followed by exposure to light fluences at 650 nm and 6 J/cm2 and then incubated overnight followed by further incubation on LB agar plates for another 24 hrs; format: functional; settings: ATCC 25922, light or radiation study
[15] = Photostability at 2 x 10^-5 mol/L exposed to 4.2 mW/cm2 light energy density assessed as change in absorption spectra after 30 mins post irradiation; format: physicochemical; settings: 0.5 h, 20 µM
Escherichia coli [16] = experiment: Antibacterial activity against Escherichia coli ATCC 25922 at 3.91 uM to 62.50 uM incubated in dark for 30 mins followed by exposure to light fluences at 650 nm and 6 J/cm2 and then incubated overnight measured after 24 hrs; format: functional, organism-based
Pseudomonas aeruginosa [17] = experiment: Antibacterial activity against Pseudomonas aeruginosa ATCC 27853 at 0.49 uM to 7.8 uM incubated in dark for 30 mins followed by exposure to light fluences at 650 nm and 6 J/cm2 and then incubated overnight measured after 24 hrs; format: functional, organism-based
Pseudomonas aeruginosa [18] = experiment: Antibacterial activity against Pseudomonas aeruginosa ATCC 27853 at 3.91 uM to 62.50 uM incubated in dark for 30 mins followed by exposure to light fluences at 650 nm and 6 J/cm2 and then incubated overnight measured after 24 hrs; format: functional, organism-based
Staphylococcus aureus [19] = experiment: Antibacterial activity against methicillin-resistant Staphylococcus aureus at 0.49 uM to 7.8 uM incubated in dark for 30 mins followed by exposure to light fluences at 650 nm and 6 J/cm2 and then incubated overnight measured after 24 hrs; format: functional, organism-based
Escherichia coli [20] = experiment: Antibacterial activity against Escherichia coli ATCC 25922 at 0.49 uM to 7.8 uM incubated in dark for 30 mins followed by exposure to light fluences at 650 nm and 6 J/cm2 and then incubated overnight measured after 24 hrs; format: functional, organism-based

Structure (SMILES) | MBC (Staphylococcus aureus [1]) [µM] | MIC (Escherichia coli [2]) [µM] | MBC (Staphylococcus aureus [3]) [µM] | MIC (Pseudomonas aeruginosa [4]) [µM] | MIC (Escherichia coli [5]) [µM] | MIC (Staphylococcus aureus [6]) [µM] | MIC (Staphylococcus aureus [7]) [µM] | MBC (Pseudomonas aeruginosa [8]) [µM] | Activity [9] | MIC (Pseudomonas aeruginosa [10]) [µM] | logP [11] | MBC (Escherichia coli [12]) [µM] | MBC (Pseudomonas aeruginosa [13]) [µM] | MBC (Escherichia coli [14]) [µM] | Activity [15] [%] | Activity (Escherichia coli [16]) | Activity (Pseudomonas aeruginosa [17]) | Activity (Pseudomonas aeruginosa [18]) | Activity (Staphylococcus aureus [19]) | Activity (Escherichia coli [20])
NCCCC[C@H](N)C(=O)Nc1ccc(-c2c3nc(c(-c4ccc(N)cc4)c4ccc([nH]4)c(-c4ccccc4)c4nc(c(-c5ccccc5)c5ccc2[nH]5)C=C4)C=C3)cc1 | 250 (≈ 193 µg/mL) | 62.5 (≈ 48.3 µg/mL) | 125 (≈ 96.6 µg/mL) | 62.5 (≈ 48.3 µg/mL) | 62.5 (≈ 48.3 µg/mL) | 125 (≈ 96.6 µg/mL) | 62.5 (≈ 48.3 µg/mL) | 125 (≈ 96.6 µg/mL) | 0.24 | 125 (≈ 96.6 µg/mL) | 1.47 | 125 (≈ 96.6 µg/mL) | 250 (≈ 193 µg/mL) | 125 (≈ 96.6 µg/mL) | < 20 |  |  |  |  | 
Nc1ccc(-c2c3nc(c(-c4ccccc4)c4ccc([nH]4)c(-c4ccccc4)c4nc(c(-c5ccccc5)c5ccc2[nH]5)C=C4)C=C3)cc1 | 500 (≈ 315 µg/mL) | 125 (≈ 78.7 µg/mL) | 500 (≈ 315 µg/mL) | 62.5 (≈ 39.4 µg/mL) | 62.5 (≈ 39.4 µg/mL) | 125 (≈ 78.7 µg/mL) | 125 (≈ 78.7 µg/mL) | 125 (≈ 78.7 µg/mL) |  | 125 (≈ 78.7 µg/mL) |  | 500 (≈ 315 µg/mL) | 250 (≈ 157 µg/mL) | 125 (≈ 78.7 µg/mL) | < 20 | inactive | inactive | inactive | inactive | inactive
Nc1ccc(-c2c3nc(c(-c4ccc(N)cc4)c4ccc([nH]4)c(-c4ccc(N)cc4)c4nc(c(-c5ccc(N)cc5)c5ccc2[nH]5)C=C4)C=C3)cc1 | 500 (≈ 337 µg/mL) | 125 (≈ 84.4 µg/mL) | 125 (≈ 84.4 µg/mL) | 125 (≈ 84.4 µg/mL) | 125 (≈ 84.4 µg/mL) | 125 (≈ 84.4 µg/mL) | 62.5 (≈ 42.2 µg/mL) | 250 (≈ 169 µg/mL) |  | 125 (≈ 84.4 µg/mL) |  | 250 (≈ 169 µg/mL) | 250 (≈ 169 µg/mL) | 250 (≈ 169 µg/mL) |  |  |  |  |  | 
NCCCC[C@H](N)C(=O)Nc1ccc(-c2c3nc(c(-c4ccccc4)c4ccc([nH]4)c(-c4ccc(N)cc4)c4nc(c(-c5ccccc5)c5ccc2[nH]5)C=C4)C=C3)cc1 | 250 (≈ 193 µg/mL) | 62.5 (≈ 48.3 µg/mL) | 250 (≈ 193 µg/mL) | 62.5 (≈ 48.3 µg/mL) | 62.5 (≈ 48.3 µg/mL) | 125 (≈ 96.6 µg/mL) | 62.5 (≈ 48.3 µg/mL) | 125 (≈ 96.6 µg/mL) | 0.27 | 125 (≈ 96.6 µg/mL) | 1.46 | 125 (≈ 96.6 µg/mL) | 250 (≈ 193 µg/mL) | 125 (≈ 96.6 µg/mL) | < 20 |  |  |  |  | 
NCCCC[C@H](N)C(=O)Nc1ccc(-c2c3nc(c(-c4ccc(N)cc4)c4ccc([nH]4)c(-c4ccc(N)cc4)c4nc(c(-c5ccc(N)cc5)c5ccc2[nH]5)C=C4)C=C3)cc1 | > 500 | 250 (≈ 201 µg/mL) | 500 (≈ 401 µg/mL) | 500 (≈ 401 µg/mL) | 250 (≈ 201 µg/mL) | 250 (≈ 201 µg/mL) | 250 (≈ 201 µg/mL) | > 500 | 0.17 | 250 (≈ 201 µg/mL) | 1.4 | 500 (≈ 401 µg/mL) | > 500 | 500 (≈ 401 µg/mL) | < 20 |  |  |  |  | 
N=C(N)NCCC[C@H](N)C(=O)Nc1ccc(-c2c3nc(c(-c4ccccc4)c4ccc([nH]4)c(-c4ccccc4)c4nc(c(-c5ccccc5)c5ccc2[nH]5)C=C4)C=C3)cc1 | 250 (≈ 196 µg/mL) | 62.5 (≈ 49.1 µg/mL) | 125 (≈ 98.2 µg/mL) | 62.5 (≈ 49.1 µg/mL) | 62.5 (≈ 49.1 µg/mL) | 125 (≈ 98.2 µg/mL) | 62.5 (≈ 49.1 µg/mL) | 125 (≈ 98.2 µg/mL) | 0.71 | 125 (≈ 98.2 µg/mL) | 1.45 | 125 (≈ 98.2 µg/mL) | 250 (≈ 196 µg/mL) | 125 (≈ 98.2 µg/mL) | < 20 | inactive | inactive | inactive | inactive | inactive
N[C@@H](Cc1c[nH]cn1)C(=O)Nc1ccc(-c2c3nc(c(-c4ccccc4)c4ccc([nH]4)c(-c4ccccc4)c4nc(c(-c5ccccc5)c5ccc2[nH]5)C=C4)C=C3)cc1 | 500 (≈ 383 µg/mL) | 125 (≈ 95.9 µg/mL) | 250 (≈ 192 µg/mL) | 62.5 (≈ 47.9 µg/mL) | 62.5 (≈ 47.9 µg/mL) | 125 (≈ 95.9 µg/mL) | 125 (≈ 95.9 µg/mL) | 125 (≈ 95.9 µg/mL) | 0.56 | 125 (≈ 95.9 µg/mL) | 1.6 | 250 (≈ 192 µg/mL) | 250 (≈ 192 µg/mL) | 125 (≈ 95.9 µg/mL) | < 20 | inactive | inactive | inactive | inactive | inactive
N=C(N)NCCC[C@H](N)C(=O)Nc1ccc(-c2c3nc(c(-c4ccc(N)cc4)c4ccc([nH]4)c(-c4ccc(N)cc4)c4nc(c(-c5ccc(N)cc5)c5ccc2[nH]5)C=C4)C=C3)cc1 | 500 (≈ 416 µg/mL) | 62.5 (≈ 51.9 µg/mL) | 500 (≈ 416 µg/mL) | 62.5 (≈ 51.9 µg/mL) | 62.5 (≈ 51.9 µg/mL) | 62.5 (≈ 51.9 µg/mL) | 62.5 (≈ 51.9 µg/mL) | 250 (≈ 208 µg/mL) | 0.47 | 62.5 (≈ 51.9 µg/mL) | 1.25 | 125 (≈ 104 µg/mL) | 250 (≈ 208 µg/mL) | 125 (≈ 104 µg/mL) | < 20 | inactive | inactive | inactive | inactive | inactive
Nc1ccc(-c2c3nc(c(-c4ccc(N)cc4)c4ccc([nH]4)c(-c4ccccc4)c4nc(c(-c5ccccc5)c5ccc2[nH]5)C=C4)C=C3)cc1 | 500 (≈ 322 µg/mL) | 125 (≈ 80.6 µg/mL) | 250 (≈ 161 µg/mL) | 62.5 (≈ 40.3 µg/mL) | 62.5 (≈ 40.3 µg/mL) | 125 (≈ 80.6 µg/mL) | 125 (≈ 80.6 µg/mL) | 125 (≈ 80.6 µg/mL) |  | 125 (≈ 80.6 µg/mL) |  | 250 (≈ 161 µg/mL) | 250 (≈ 161 µg/mL) | 125 (≈ 80.6 µg/mL) | < 20 | inactive | inactive | inactive | inactive | inactive
Nc1ccc(-c2c3nc(c(-c4ccc(N)cc4)c4ccc([nH]4)c(-c4ccc(NC(=O)[C@@H](N)Cc5c[nH]cn5)cc4)c4nc(c(-c5ccc(N)cc5)c5ccc2[nH]5)C=C4)C=C3)cc1 | 250 (≈ 203 µg/mL) | 62.5 (≈ 50.7 µg/mL) | 250 (≈ 203 µg/mL) | 62.5 (≈ 50.7 µg/mL) | 62.5 (≈ 50.7 µg/mL) | 62.5 (≈ 50.7 µg/mL) | 62.5 (≈ 50.7 µg/mL) | 250 (≈ 203 µg/mL) | 0.2 | 62.5 (≈ 50.7 µg/mL) | 1.53 | 250 (≈ 203 µg/mL) | 250 (≈ 203 µg/mL) | 250 (≈ 203 µg/mL) | < 20 | inactive | inactive | inactive | inactive | inactive
Nc1ccc(-c2c3nc(c(-c4ccccc4)c4ccc([nH]4)c(-c4ccc(N)cc4)c4nc(c(-c5ccccc5)c5ccc2[nH]5)C=C4)C=C3)cc1 | 125 (≈ 80.6 µg/mL) | > 500 | 125 (≈ 80.6 µg/mL) | 125 (≈ 80.6 µg/mL) | 125 (≈ 80.6 µg/mL) | 62.5 (≈ 40.3 µg/mL) | 62.5 (≈ 40.3 µg/mL) | 250 (≈ 161 µg/mL) |  | 125 (≈ 80.6 µg/mL) |  | > 500 | 250 (≈ 161 µg/mL) | 500 (≈ 322 µg/mL) | < 20 | inactive | inactive | inactive | inactive | inactive
C1=Cc2nc1c(-c1ccccc1)c1ccc([nH]1)c(-c1ccccc1)c1nc(c(-c3ccccc3)c3ccc([nH]3)c2-c2ccccc2)C=C1 |  |  |  |  |  |  |  |  | 0.64 |  |  |  |  |  |  |  |  |  |  | 
